In PubChem BioAssay AID1919001 (Molecular Pharmacology Branch, DTP, NCI, 2023):

Tested on: 699152-130-R-J1-PDC complex spheroid growth
Test: Anticancer human tumor 699152-130-R-J1-PDC patient-derived pancreatic carcinoma cell line growth inhibition [AhR]
Conditions: for IC50: curve of first compound; for viability, T/C: stronger effect = lower value
Outline: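 Complex tumor spheroids co-cultured with HUVEC and human MSC stroma; AhR antagonists tested in combination with standard-of-care and investigational agents. Top concentration at or near clinical Cmax (else 10 microM), half-log dilutions; growth expressed as percent test/control.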

[1] = second compound 0.1 µM, first compound 0.0316 µM
[2] = second compound 0.1 µM, first compound 0.1 µM
[3] = second compound 0.1 µM, first compound 0.316 µM
[4] = second compound 0.1 µM, first compound 1 µM
[5] = second compound 0.1 µM, first compound 3.16 µM
[6] = second compound 0.1 µM, first compound 10 µM
[7] = second compound 0.316 µM, first compound 0.0316 µM
[8] = second compound 0.316 µM, first compound 0.1 µM
[9] = second compound 0.316 µM, first compound 0.316 µM
[10] = second compound 0.316 µM, first compound 1 µM
[11] = second compound 0.316 µM, first compound 3.16 µM
[12] = second compound 0.316 µM, first compound 10 µM
[13] = second compound 1 µM, first compound 0.0316 µM
[14] = second compound 1 µM, first compound 0.1 µM
[15] = second compound 1 µM, first compound 0.316 µM
[16] = second compound 1 µM, first compound 1 µM
[17] = second compound 1 µM, first compound 3.16 µM
[18] = second compound 1 µM, first compound 10 µM
[19] = second compound 3.16 µM, first compound 0.0316 µM
[20] = second compound 3.16 µM, first compound 0.1 µM
[21] = second compound 3.16 µM, first compound 0.316 µM
[22] = second compound 3.16 µM, first compound 1 µM
[23] = second compound 3.16 µM, first compound 3.16 µM
[24] = second compound 3.16 µM, first compound 10 µM
[25] = second compound 10 µM, first compound 0.0316 µM
[26] = second compound 10 µM, first compound 0.1 µM
[27] = second compound 10 µM, first compound 0.316 µM
[28] = second compound 10 µM, first compound 1 µM
[29] = second compound 10 µM, first compound 3.16 µM
[30] = second compound 10 µM, first compound 10 µM
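Also: compound exposure lasted 7 days after spheroids had grown for 3 days.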

## Nc1ccccc1NC(=O)c1ccc(CNC(=O)OCc2cccnc2)cc1 + Cc1cncc(-c2nc(NCCc3c[nH]c4ccccc34)c3ncn(C(C)C)c3n2)c1
Second compound 0.1 µM
  IC50: 7.18 µM
Second compound 0.316 µM
  IC50: 6.48 µM
Second compound 1 µM
  IC50: 8.11 µM
Second compound 3.16 µM
  IC50: 5.35 µM
Second compound 10 µM
  IC50: < 0.0316 µM
[1]
  viability, T/C: 94.9%
[2]
  viability, T/C: 96.5%
[3]
  viability, T/C: 99.3%
[4]
  viability, T/C: 107%
[5]
  viability, T/C: 77%
[6]
  viability, T/C: 39.1%
[7]
  viability, T/C: 110%
[8]
  viability, T/C: 97.2%
[9]
  viability, T/C: 105%
[10]
  viability, T/C: 105%
[11]
  viability, T/C: 72.3%
[12]
  viability, T/C: 36.5%
[13]
  viability, T/C: 118%
[14]
  viability, T/C: 116%
[15]
  viability, T/C: 113%
[16]
  viability, T/C: 108%
[17]
  viability, T/C: 72%
[18]
  viability, T/C: 45.1%
[19]
  viability, T/C: 77.8%
[20]
  viability, T/C: 81.4%
[21]
  viability, T/C: 70.3%
[22]
  viability, T/C: 64.2%
[23]
  viability, T/C: 68.1%
[24]
  viability, T/C: 33.8%
[25]
  viability, T/C: 11.6%
[26]
  viability, T/C: 7.91%
[27]
  viability, T/C: 7.77%
[28]
  viability, T/C: 9.69%
[29]
  viability, T/C: 7.99%
[30]
  viability, T/C: 3.12%

## O=C(C=Cc1cccc(S(=O)(=O)Nc2ccccc2)c1)NO + Cc1cncc(-c2nc(NCCc3c[nH]c4ccccc34)c3ncn(C(C)C)c3n2)c1
Second compound 0.1 µM
  IC50: > 10 µM
Second compound 0.316 µM
  IC50: > 10 µM
Second compound 1 µM
  IC50: > 10 µM
Second compound 3.16 µM
  IC50: > 10 µM
Second compound 10 µM
  IC50: < 0.0316 µM
[1]
  viability, T/C: 110%
[2]
  viability, T/C: 96.5%
[3]
  viability, T/C: 102%
[4]
  viability, T/C: 117%
[5]
  viability, T/C: 98.8%
[6]
  viability, T/C: 91.3%
[7]
  viability, T/C: 114%
[8]
  viability, T/C: 96%
[9]
  viability, T/C: 101%
[10]
  viability, T/C: 112%
[11]
  viability, T/C: 101%
[12]
  viability, T/C: 82.8%
[13]
  viability, T/C: 112%
[14]
  viability, T/C: 120%
[15]
  viability, T/C: 121%
[16]
  viability, T/C: 109%
[17]
  viability, T/C: 96.6%
[18]
  viability, T/C: 87.5%
[19]
  viability, T/C: 108%
[20]
  viability, T/C: 105%
[21]
  viability, T/C: 109%
[22]
  viability, T/C: 86.4%
[23]
  viability, T/C: 81.8%
[24]
  viability, T/C: 79%
[25]
  viability, T/C: 27.2%
[26]
  viability, T/C: 20.6%
[27]
  viability, T/C: 21.4%
[28]
  viability, T/C: 19.4%
[29]
  viability, T/C: 17%
[30]
  viability, T/C: 10.1%

## O=C(c1cc(Cc2n[nH]c(=O)c3ccccc23)ccc1F)N1CCN(C(=O)C2CC2)CC1 + Cc1cncc(-c2nc(NCCc3c[nH]c4ccccc34)c3ncn(C(C)C)c3n2)c1
Second compound 0.1 µM
  IC50: > 10 µM
Second compound 0.316 µM
  IC50: > 10 µM
Second compound 1 µM
  IC50: > 10 µM
Second compound 3.16 µM
  IC50: > 10 µM
Second compound 10 µM
  IC50: < 0.0316 µM
[1]
  viability, T/C: 119%
[2]
  viability, T/C: 104%
[3]
  viability, T/C: 105%
[4]
  viability, T/C: 97.6%
[5]
  viability, T/C: 120%
[6]
  viability, T/C: 82.9%
[7]
  viability, T/C: 104%
[8]
  viability, T/C: 101%
[9]
  viability, T/C: 111%
[10]
  viability, T/C: 105%
[11]
  viability, T/C: 95.3%
[12]
  viability, T/C: 90%
[13]
  viability, T/C: 119%
[14]
  viability, T/C: 120%
[15]
  viability, T/C: 119%
[16]
  viability, T/C: 116%
[17]
  viability, T/C: 107%
[18]
  viability, T/C: 106%
[19]
  viability, T/C: 96.8%
[20]
  viability, T/C: 93.7%
[21]
  viability, T/C: 89.7%
[22]
  viability, T/C: 90%
[23]
  viability, T/C: 95.1%
[24]
  viability, T/C: 93.4%
[25]
  viability, T/C: 9.79%
[26]
  viability, T/C: 10.4%
[27]
  viability, T/C: 12.8%
[28]
  viability, T/C: 11.7%
[29]
  viability, T/C: 11.9%
[30]
  viability, T/C: 15.3%
